Results taken from patent US5208263A, “Anti-androgen compounds” (Arch Development Corporation, priority 1989, dated 1993).
Read-outs that look alike come from different tables or passages of the source.

Assays:
[1] = biological target: T1, androgen receptor of rat ventral prostate (Rattus norvegicus, UniProt P15207); experiment: Competition with [3H]R1881 for androgen receptor binding, cell-free assay (Table 1)
T1 construct: androgen receptors isolated, as described in Chang, C., et al., J. Steroid Biochem., 27:123 (1987), from rat ventral prostate; from tissue; host or cells: rat ventral prostate
T1 sequence (P15207 1-902): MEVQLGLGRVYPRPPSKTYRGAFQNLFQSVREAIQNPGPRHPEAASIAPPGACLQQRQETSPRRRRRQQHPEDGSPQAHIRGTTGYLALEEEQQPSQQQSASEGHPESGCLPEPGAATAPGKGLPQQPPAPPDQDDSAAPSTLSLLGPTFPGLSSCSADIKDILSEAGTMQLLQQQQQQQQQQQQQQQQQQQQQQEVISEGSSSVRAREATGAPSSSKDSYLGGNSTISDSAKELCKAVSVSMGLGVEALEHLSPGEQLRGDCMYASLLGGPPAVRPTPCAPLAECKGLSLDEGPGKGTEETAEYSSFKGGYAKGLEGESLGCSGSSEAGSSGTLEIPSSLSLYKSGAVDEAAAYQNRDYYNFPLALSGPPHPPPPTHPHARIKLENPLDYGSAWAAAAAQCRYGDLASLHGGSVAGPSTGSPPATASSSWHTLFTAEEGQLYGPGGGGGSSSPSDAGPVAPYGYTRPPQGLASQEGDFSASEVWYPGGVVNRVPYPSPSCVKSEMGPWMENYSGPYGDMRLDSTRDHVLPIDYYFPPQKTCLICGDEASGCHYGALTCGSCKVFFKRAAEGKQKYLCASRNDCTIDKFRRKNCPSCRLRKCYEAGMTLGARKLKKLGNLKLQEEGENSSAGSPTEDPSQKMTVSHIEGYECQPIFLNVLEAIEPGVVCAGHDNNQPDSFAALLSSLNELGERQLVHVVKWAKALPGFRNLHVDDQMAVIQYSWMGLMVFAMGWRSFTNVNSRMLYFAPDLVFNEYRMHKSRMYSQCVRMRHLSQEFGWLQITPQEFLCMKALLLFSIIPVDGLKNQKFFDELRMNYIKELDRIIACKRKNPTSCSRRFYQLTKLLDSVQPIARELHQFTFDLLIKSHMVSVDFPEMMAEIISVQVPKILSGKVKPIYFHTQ

ventral prostate = details: rats; Chang et al. 1987; cited from earlier work
androgen receptors = details: Chang et al. 1987; cited from earlier work
[2] = in parentheses, relative to R1881 = 100.00, cell-free, rat ventral prostate

IC50 [1]	Relative receptor binding activity (RBA) [1, 2]	Compound	Relative receptor binding activity (RBA) [1]	IC50 ([1]; read-out: IC50 (concentration of test compound needed to show 50% inhibition of [3H]R1881 binding), [3H]R1881 (17a-methyltrienolone) binding, androgen receptor of rat ventral prostate, cell-free)	inhibition of growth of the ventral prostate (ventral prostate)	interaction with androgen receptors in cell-free systems (androgen receptors)
–	–	1-[2-(9(or 10)-methyl-9,10-dihydrophenanthryl)]-1-ethanol [Compound 11]	0.29	6.8 µM	–	–
200 µM	0.01	c1cc2c(c3c1CCCC3)CCCC2 [1,2,3,4,5,6,7,8-octahydro-phenanthrene, reference compound]	–	–	–	–
10 µM	0.20	c1ccc2c(c1)CCc1ccccc1-2 [9,10-dihydrophenanthrene, reference compound]	–	–	inhibits the growth of the ventral prostate in rats	interacts with androgen receptors in cell-free systems
60 µM	0.03	c1ccc2c(c1)CCc1ccccc1C2 [10,11-dihydro-5H-dibenzo-[a,d]cycloheptene, reference compound]	–	–	–	–
2.6 µM	0.77	CC(O)c1ccc2c(c1)CCc1ccccc1-2 (stereo not shown) [Compound 9, 1-[2-(9,10-Dihydrophenanthryl)]-1-ethanol]	–	–	–	–
7.9 µM	0.25	Oc1ccc2c(c1)CCc1ccccc1-2 [Compound 13, 2-Hydroxy-9,10-dihydrophenanthrene]	–	–	–	–
1.3 µM	1.53	O=C1CCc2c(ccc3c2CCc2c(O)cccc2-3)C1 [Compound 22, 4'-oxo-7,8-cyclohexeno-9,10-dihydrophenanthren-1-ol]	–	–	–	–
3.6 µM	0.56	OCCc1ccc2c(c1)CCc1ccccc1-2 [Compound 26, 2-(2'-hydroxyethyl)-9,10-dihydrophenanthrene]	–	–	–	–
47.9 µM	0.04	OCC(O)c1ccc2c(c1)CCc1ccccc1-2 (stereo not shown) [Compound 27, 2-(2',3'-dihydroxyethyl)-9,10-dihydrophenanthrene]	–	–	–	–
800 µM	0.0025	c1ccc2c(c1)ccc1ccccc12 [phenanthrene, reference compound]	–	–	–	–

Compound	IC50 [1]	Relative receptor binding activity (RBA) [1, 2]	Relative receptor binding activity (RBA) [1]	IC50 ([1]; read-out: IC50 (concentration of test compound needed to show 50% inhibition of [3H]R1881 binding), [3H]R1881 (17a-methyltrienolone) binding, androgen receptor of rat ventral prostate, cell-free)	inhibition of growth of the ventral prostate (ventral prostate)	interaction with androgen receptors in cell-free systems (androgen receptors)
O=C1CCc2c1ccc1c2CCc2ccccc2-1 (racemic) [Compound 6, 6,7,16,17-Tetrahydro-15H-cyclopenta[a]phenanthren-17-one]	17.8 µM	–	0.11	–	–	–
OC1CCc2c1ccc1c2CCc2ccccc2-1 (stereo not shown) [Compound 7, 6,7,16,17-tetrahydro-15H-cyclo-penta[a]phen-anthren-17-ol]	4.2 µM	–	0.48	–	–	–
O=C1CCc2c(ccc3c2ccc2c(O)cccc23)C1 [Compound 25, 4'-oxo-7,8-cyclohexenophenanthren-1-ol]	> 100 µM	–	< 0.02	–	–	–
